According to US20210094933A1, “RAPAFUCIN DERIVATIVE COMPOUNDS AND METHODS OF USE THEREOF” (The Johns Hopkins University, priority 2019, published 2021):
pIC50: −log10 of the molar value.

Columns and labels:
293T = experiment: Nucleoside uptake assay (3H-Thymidine), IC50 relative to DMSO control; type: cell-based; details: 293T cells
Experimental: (§1) Nucleoside Uptake Assay (uptake). Nuceloside uptake assays were performed with using 3H-Thymidine as described in Guo et al. (2018) Nat. Chem, 11:254-63. Specific cell lines are indicated in each assay and cultured in complete growth media. Activity is scored according to the IC50 values relative to DMSO control. “Low” indicates an IC50 greater than 600 nM, “Medium” indicates an IC50 between 300 nM and 600 nM “High” indicates an IC50 less than 300 nM. “Rel.Uptake” refers to uptake activity characterization relative to a single concentration assay. “Low” indicates a response greater than 0.6 times the activity relative to DMSO, “Medium” indicates a response between 0.6 and 0.3 times the activity relative to DMSO, “High” indicates a response less than 0.3 times the activity relative to DMSO.

[1] = Nucleoside uptake assay, single concentration (Rel.Uptake), response relative to DMSO; cell line indicated in each table; type: cell-based
Experimental: as §1

[2] = 3H-Thymidine uptake, IC50 class relative to DMSO control
[3] = nucleoside uptake, single concentration, 293T cells
[4] = 293 T cells, nucleoside uptake at single concentration

Row | Compound | Uptake, 293T (293T; [2]) | Rel. Uptake, 293 T [1, 4] | further results
1 | COc1ccc(CC[C@H]2OC(=O)[C@@H]3CCCCN3C(=O)C(=O)C(C)(C)COC(=O)C=CCCN(C)C(=O)[C@H](CC(C)C)N(C)C(=O)[C@H]3CCCN3C(=O)[C@H](Cc3ccc(CC(=O)OC(C)(C)C)cc3)NC(=O)C(c3ccccc3)NC(=O)CCC(=O)Nc3cccc2c3)cc1OC (some centres unmarked) [Compound 1081] | medium | – | Rel. Uptake, 293 T [1, 3]: medium
2 | COc1ccc(CC[C@H]2OC(=O)[C@@H]3CCCCN3C(=O)C(=O)C(C)(C)COC(=O)C=CCCN(C)C(=O)[C@H](CC(C)C)N(C)C(=O)[C@H]3CCCN3C(=O)[C@H](CC(=O)OC(C)(C)C)N(C)C(=O)C(c3ccccc3)NC(=O)CCC(=O)Nc3cccc2c3)cc1OC (some centres unmarked) [Compound 1066] | high | – | Rel. Uptake, 293 T [1, 3]: high
3 | COc1ccc(CC[C@H]2NC(=O)[C@@H]3CCCCN3C(=O)C(=O)C(C)(C)CNC(=O)C=CCCN(C)C(=O)[C@H](CC(C)C)N(C)C(=O)[C@H]3CCCN3C(=O)[C@H](Cc3ccccc3)N(C)C(=O)C(c3ccccc3)NC(=O)CCC(=O)Nc3cccc2c3)cc1OC (some centres unmarked) [Compound 1557] | high | high | –
4 | COc1ccc(CC[C@H]2OC(=O)[C@@H]3CCCCN3C(=O)C(=O)C(C)(C)COC(=O)C=CCCN(C)C(=O)[C@H](CC(C)C)N(C)C(=O)[C@H]3CCCN3C(=O)[C@H](Cc3ccc(O)cc3)NC(=O)C(c3ccccc3)NC(=O)CCC(=O)Nc3cccc2c3)cc1OC (some centres unmarked) [Compound 1522] | high | high | –
5 | COc1ccc(CC[C@H]2OC(=O)[C@@H]3CCCCN3C(=O)C(=O)C(C)(C)COC(=O)C=CCCN(C)C(=O)[C@H](CC(C)C)N(C)C(=O)[C@H]3CCCN3C(=O)[C@H]3C[C@@H](NC(=O)OC(C)(C)C)CN3C(=O)C(c3ccccc3)NC(=O)CCC(=O)Nc3cccc2c3)cc1OC (some centres unmarked) [Compound 1087] | low | – | Rel. Uptake, 293 T ([1]; 293 T cells, single concentration): low
6 | COc1ccc(CC[C@H]2OC(=O)[C@@H]3CCCCN3C(=O)C(=O)C(C)(C)COC(=O)C=CCCN(C)C(=O)[C@H](CC(C)C)N(C)C(=O)[C@H]3CCCN3C(=O)[C@H](Cc3ccc(CC(=O)NCc4ccccc4)cc3)NC(=O)[C@H](c3ccccc3)NC(=O)CCC(=O)Nc3cccc2c3)cc1OC [Compound 1590] | – | High (“High” indicates a response less than 0.3 times the activity relative to DMSO) | pIC50 (293T; Table 14): < 6.22
7 | COc1ccc(CC[C@H]2OC(=O)[C@@H]3CCCCN3C(=O)C(=O)C(C)(C)COC(=O)C=CCCN(C)C(=O)[C@@H](c3ccccc3)NC(=O)[C@H](Cc3ccc(OP(C)(C)=O)cc3)NC(=O)[C@H]3CCCN3C(=O)[C@H](CC(C)C)N(C)C(=O)COc3cccc2c3)cc1OC [Compound 1520] | low | low | –
8 | COc1ccc(CC[C@H]2OC(=O)[C@@H]3CCCCN3C(=O)C(=O)C(C)(C)COC(=O)C=CCCN(C)C(=O)[C@H](CC(C)C)N(C)C(=O)[C@H]3CCCN3C(=O)[C@H](Cc3ccc(C(=O)NCCO)cc3)NC(=O)[C@H](c3ccccc3)NC(=O)CCC(=O)Nc3cccc2c3)cc1OC [Compound 1558] | – | high | Uptake, 293T (293T; Table 14): high
9 | COc1ccc(CC[C@H]2OC(=O)[C@@H]3CCCCN3C(=O)C(=O)C(C)(C)COC(=O)C=CCCN(C)NC(c3ccccc3)C(=O)N(C)[C@@H](Cc3ccccc3)C(=O)N3CCC[C@@H]3C(=O)N(C)[C@@H](CC(C)C)C(=O)C(=O)CCOc3cccc2c3)cc1OC (some centres unmarked) [Compound 1556] | low | low | –
10 | CCCCCCNC(=O)Cc1ccc(C[C@@H]2NC(=O)[C@H](c3ccccc3)NC(=O)CCC(=O)Nc3cccc(c3)[C@@H](CCc3ccc(OC)c(OC)c3)OC(=O)[C@@H]3CCCCN3C(=O)C(=O)C(C)(C)COC(=O)C=CCCN(C)C(=O)[C@H](CC(C)C)N(C)C(=O)[C@H]3CCCN3C2=O)cc1 [Compound 1591] | – | Med | pIC50 (293T; Table 14): < 6.22
